Test [1] deals with MDA-MB-231 (breast cancer) cell line. Put plainly: Cell growth inhibition experiment (SRB), MDA-MB-231. The test is classed as cell-based, human. As to conditions: Homo sapiens, MDA-MB-231, 96 h, 96 hours incubation. Here is the method:
(§1) The cell lines below were used in order to confirm the efficacy of the compounds synthesized in Examples 1 to 60. Human PANC-1 (pancreatic cancer) and MDA-MB-231 (breast cancer) cell lines were obtained from the American Type Culture Collection (ATCC; Manassas, Va.); and HN31 (head and neck cancer) and UMRC2 (kidney cancer) cell lines were secured from the United States National Institutes of Health (Bethesda, Md.). The MDA-MB-231, UMRC2, HN31, and PANC-1 cell lines were cultured in Dulbecco modified Eagle medium (DMEM; Invitrogen, Carlsbad, Calif.) containing FBS (10%), HEPES (10 mM), penicillin (100 U/mL), and streptomycin (100 μg/mL). All cell lines were cultured in an incubator (37° C., 5% CO2).
(§2) The 4-(aryl)-N-(3-alkoxyfuro[2,3-b]pyrazin-2-yl)-piperazine-1-carboxamide derivative compounds synthesized according to Examples 1 to 60 of the present invention were treated with various human tissue-derived cancer cell lines cultured according to Experimental Example 1, and thus the inhibitory effect of the growth of human cancer cells was confirmed. The cell growth inhibition experiment was conducted using the sulforhodamine B (SRB) technique (Skehan et al., J. National Cancer Institute, 1990, 82: 1107-1112). Specifically, each cell line was seeded in a 96-well plate at a density of 2 to 3×10^3 cells/well, cultured overnight, and then treated with the 4-(aryl)-N-(3-alkoxyfuro[2,3-b]pyrazin-2-yl)-piperazine-1-carboxamide derivative compounds of the present invention. The experiment was repeated 3 times for each compound. Cells treated with each compound were additionally incubated for 96 hours, fixed with 10% trichloroacetic acid (TCA), and then left at 4° C. for 1 hour. The resultant was washed 3 times with distilled water. Thereafter, each cell was treated with 0.4% sulforhodamine B dissolved in 1% acetic acid, stained for 30 minutes, and then washed 4 times with 1% acetic acid. The resultant was dried in the air. After shaking the resultant in Tris solution (10 mM) for 5 minutes, the absorbance was measured at 530 nm using a Benchmark Plus Microplate reader (Bio-Rad Laboratories, Hercules, Calif.).
(§3) In order to convert the OD530 value to the number of viable cells per each well, the measured OD530 value was compared to the standard OD530-vs.-cell number curve of each cell line. The percent survival was calculated using the following formula: % survival=Nlive cells(test)/Nlive cells(control)×100

Test [2] relates to UMRC2 (kidney cancer) cell line. Put plainly: Cell growth inhibition experiment (SRB), UMRC2. Type of test: cell-based, human. The conditions noted are these: Homo sapiens, UMRC2, 96 h, 96 hours incubation. Here is the method: as §1, §2, §3
Test [3] deals with PANC-1 (pancreatic cancer) cell line. Nature of the test: Cell growth inhibition experiment (SRB), PANC-1. Type of test: cell-based. As to conditions: Homo sapiens, PANC-1, 96 h, 96 hours incubation. The procedure:
as §1, §2, §3

In test [4] the test system is HN31 (head and neck cancer) cell line. Nature of the test: Cell growth inhibition experiment (SRB), HN31. The test is classed as cell-based, human. The conditions noted are these: Homo sapiens, 96 h, 96 hours incubation. Here is the method: as §1, §2, §3
The test system of the next test is A549. Nature of the test: Cell growth inhibition experiment (SRB), A549. Type of test: cell-based. The conditions noted are these: Homo sapiens, A549, 96 h, 96 hours incubation, read-out: IC50 (μM) for cancer cell line A549. Here is the method: as §2, §3
The next test deals with HEK293. Nature of the test: Cell growth inhibition experiment (SRB), HEK293. Type of test: cell-based, human. The conditions noted are these: Homo sapiens, HEK293, 96 h, 96 hours incubation, read-out: IC50 (μM) for cancer cell line HEK293. Here is the method:
as §2, §3

A further test has as its system HUVEC. Nature of the test: Cell growth inhibition experiment (SRB), HUVEC. Type of test: cell-based, human. As to conditions: Homo sapiens, HUVEC, 96 h, 96 hours incubation, read-out: IC50 (μM) […]. The procedure:
as §2, §3

The test system of another test is HT29. Nature of the test: Cell growth inhibition experiment (SRB), HT29. The test is classed as cell-based, human. As to conditions: Homo sapiens, HT-29, 96 h, 96 hours incubation, read-out: IC50 (μM) for cancer cell line HT29. Here is the method:
as §2, §3

The test system of the next test is SK-OV-3. Nature of the test: Cell growth inhibition experiment (SRB), SK-OV-3. As to conditions: Homo sapiens, SK-OV-3, 96 h, 96 hours incubation, read-out: IC50 (μM) for cancer cell line SK-OV-3. Type of test: cell-based, human. Here is the method: as §2, §3

Structures are written as SMILES.

On to `CCOc1nc2oc(Cl)cc2nc1NC(=O)N1CCN(c2cc(F)cc(OC)c2)CC1` [Example 53, N-(6-Chloro-3-ethoxyfuro[2,3-b]pyrazin-2-yl)-4-(3-fluoro-5-methoxyphenyl)piperazine-1-carboxamide], for which the 50% inhibitory concentration (IC50) in test [1] was 0.48 µM; in [2], 0.32 µM; in test [3], 0.56 µM; in test [4], 0.45 µM; with A549, 1.68 µM; with HEK293, 1.98 µM. Also, the IC50 in the test with HUVEC is 1.88 µM; with HT29, 1.67 µM; in the test on SK-OV-3, 1.91 µM.

Turning to `COc1nc2occc2nc1NC(=O)N1CCN(c2cc(C)cc(F)c2)CC1` [Example 6, 4-(3-Fluoro-5-methylphenyl)-N-(3-methoxyfuro[2,3-b]pyrazin-2-yl)piperazine-1-carboxamide], the IC50 came out at 1.13 µM in test [1]; 1.21 µM in [2]; 0.98 µM in test [3]; 1.98 µM in test [4]; 1.78 µM with A549; 1.83 µM in the test on HEK293. The concentration for half-maximal inhibition (IC50) in the test with HUVEC, in the test on HT29 and in the test on SK-OV-3 was less than 2.5 µM throughout.

Take `CCOc1nc2occc2nc1NC(=O)N1CCN(c2cc(OC)cc(OC)c2)CC1` [Example 11, 4-(3,5-Dimethoxyphenyl)-N-(3-ethoxyfuro[2,3-b]pyrazin-2-yl)piperazine-1-carboxamide]: the concentration for half-maximal inhibition (IC50) in test [1] came out at 0.07 µM; in test [2], 0.07 µM; in test [3], 0.24 µM; in [4], 0.41 µM; in the test with A549, 1.51 µM; in the test on HEK293, 0.65 µM. In addition, the IC50 stood at 0.07 µM in the test on HUVEC, 1.31 µM with HT29 and 1.27 µM with SK-OV-3.

Consider `COc1nc2occc2nc1NC(=O)N1CCN(c2cc(F)cc(F)c2)CC1` [Example 7, 4-(3,5-difluorophenyl)-N-(3-methoxyfuro[2,3-b]pyrazin-2-yl)piperazine-1-carboxamide], for which the half-inhibitory concentration (IC50) in test [1] was 1.78 µM; in test [2], 1.78 µM; in [3] it was 1.89 µM; in [4], less than 2.5 µM; with A549, less than 2.5 µM; in the test on HEK293, less than 2.5 µM. Moreover, the IC50 in the test on HUVEC, in the test on HT29 and in the test with SK-OV-3 was less than 2.5 µM in each case.

Regarding `CCOc1nc2occc2nc1NC(=O)N1CCN(c2cc(C)cc(OC)c2)CC1` [Example 12, N-(3-Ethoxyfuro[2,3-b]pyrazin-2-yl)-4-(3-methoxy-5-methylphenyl)piperazine-1-carboxamide], the IC50 in test [1] is 0.05 µM; in test [2] it was 0.14 µM; in test [3], 0.24 µM; in test [4] it was 0.33 µM; with A549 it was 1.28 µM; in the test on HEK293, 1.55 µM. For the same molecule, the results for the 50% inhibitory concentration (IC50) in the test on HUVEC, with HT29 and with SK-OV-3 were 0.27 µM, 1.3 µM and 1.29 µM, respectively.

Regarding `COc1cc(C)cc(N2CCN(C(=O)Nc3nc4ccoc4nc3OC)CC2)c1` [Example 2, 4-(3-Methoxy-5-methylphenyl)-N-(3-methoxyfuro[2,3-b]pyrazin-2-yl)piperazine-1-carboxamide], the 50% inhibitory concentration (IC50) turned out to be 0.26 µM in [1]; 0.38 µM in test [2]; 0.45 µM in test [3]; 0.49 µM in test [4]; 0.23 µM in the test with A549; 1.93 µM in the test with HEK293. Moreover, the figures for the half-maximal inhibitory concentration (IC50) in the test on HUVEC, with HT29 and with SK-OV-3 were 0.91 µM, 0.62 µM and 0.82 µM, respectively.

For the molecule `CCOc1nc2occc2nc1NC(=O)N1CCN(c2cc(F)cc(OC)c2)CC1` [Example 13, N-(3-Ethoxyfuro[2,3-b]pyrazin-2-yl)-4-(3-fluoro-5-methoxyphenyl)piperazine-1-carboxamide], the IC50 in [1] was 0.16 µM; in test [2], 0.26 µM; in [3], 0.65 µM; in test [4], 0.72 µM; with A549, less than 2.5 µM; in the test on HEK293 it was less than 2.5 µM. Further, the IC50 in the test with HUVEC, with HT29 and in the test with SK-OV-3 was less than 2.5 µM in each case.

Consider `COc1nc2oc(C)cc2nc1NC(=O)N1CCN(c2cc(C)cc(F)c2)CC1` [Example 26, 4-(3-Fluoro-5-methylphenyl)-N-(3-methoxy-6-methylfuro[2,3-b]pyrazin-2-yl)piperazine-1-carboxamide], for which the IC50 is 1.32 µM in [1]; 1.56 µM in [2]; less than 2.5 µM in test [3]; less than 2.5 µM in [4]; less than 2.5 µM with A549; less than 2.5 µM with HEK293. The IC50 in the test on HUVEC, in the test with HT29 and with SK-OV-3 was less than 2.5 µM each time.

As to `CCOc1nc2oc(Cl)cc2nc1NC(=O)N1CCN(c2cc(C)cc(F)c2)CC1` [Example 56, N-(6-Chloro-3-ethoxyfuro[2,3-b]pyrazin-2-yl)-4-(3-fluoro-5-methylphenyl)piperazine-1-carboxamide], the IC50 in test [1] was 0.36 µM; in test [2], 0.87 µM; in test [3], 1.68 µM; in [4] it was 1.75 µM; in the test on A549, less than 2.5 µM; in the test on HEK293, less than 2.5 µM. Further, the IC50 in the test with HUVEC, with HT29 and in the test with SK-OV-3 was less than 2.5 µM throughout.

`CCOc1nc2oc(Cl)cc2nc1NC(=O)N1CCN(c2cc(F)cc(F)c2)CC1` [Example 57, N-(6-Chloro-3-ethoxyfuro[2,3-b]pyrazin-2-yl)-4-(3,5-difluorophenyl)piperazine-1-carboxamide]: the IC50 (in test [1]; in [2]; in [3]; in [4]; in the test on A549; in the test on HEK293) was less than 2.5 µM throughout. Further, the half-inhibitory concentration (IC50) in the test with HUVEC, in the test with HT29 and in the test with SK-OV-3 was less than 2.5 µM each time.

As for `CCOc1nc2oc(C)cc2nc1NC(=O)N1CCN(c2cc(F)cc(F)c2)CC1` [Example 37, 4-(3,5-Difluorophenyl)-N-(3-ethoxy-6-methylfuro[2,3-b]pyrazin-2-yl)piperazine-1-carboxamide], the IC50 in [1] was determined as 0.15 µM; in [2], 0.36 µM; in test [3], 0.51 µM; in [4], 0.68 µM; in the test with A549, 0.44 µM; in the test with HEK293, 1.63 µM. Also, the IC50 was 1.25 µM in the test on HUVEC, 1.28 µM in the test with HT29 and 2.13 µM with SK-OV-3.

For the molecule `COc1nc2occc2nc1NC(=O)N1CCN(c2cc(C)cc(C)c2)CC1` [Example 5, 4-(3,5-Dimethylphenyl)-N-(3-methoxyfuro[2,3-b]pyrazin-2-yl)piperazine-1-carboxamide], the IC50 in [1] is 1.12 µM; in test [2], 1.72 µM; in test [3] it was 1.32 µM; in test [4] it was 2.35 µM; in the test on A549, less than 2.5 µM; with HEK293 it was less than 2.5 µM. For the same molecule, the IC50 in the test on HUVEC, in the test on HT29 and with SK-OV-3 was less than 2.5 µM throughout.

Turning to `CCOc1nc2oc(C)cc2nc1NC(=O)N1CCN(c2cc(OC)cc(OC)c2)CC1` [Example 31, 4-(3,5-Dimethoxyphenyl)-N-(3-ethoxy-6-methylfuro[2,3-b]pyrazin-2-yl)piperazine-1-carboxamide], the half-inhibitory concentration (IC50) is 0.12 µM in test [1]; 0.36 µM in [2]; 0.44 µM in [3]; 1.63 µM in test [4]; 1.25 µM in the test with A549; less than 2.5 µM in the test on HEK293. Besides, the IC50 in the test with HUVEC, with HT29 and in the test on SK-OV-3 was less than 2.5 µM in each case.

One may read the IC50 as the point on the concentration scale where inhibition reaches its midpoint.

The values above are taken from US10800788B2, “4-(aryl)-N-(3-alkoxyfuro[2,3-b]pyrazin-2-yl)-piperazine-1-carboxamide derivative and antiproliferative effect thereof” (Dongguk University Industry-Academic Cooperation Foundation, priority 2016, dated 2020).
